From paper PMC8427794 (ACS Omega, 2021)
Read-outs that look alike come from different tables or passages of the source. Blank lines part the entries; values can stand above or below the compound they belong to.

Assays:
[1] = Human liver microsomal stability; type: in vitro ADME; details: incubation with microsomes for 15 min at 5 μM
[2] = Rat liver microsomal stability; type: in vitro ADME; details: incubation with microsomes for 15 min at 5 μM
mGlu2 receptor [3] = target: T1, mGlu2 receptor (Homo sapiens, UniProt Q14416); test: [35S]GTPγS binding assay, agonist mode; type: biochemical; details: for Emax: read-out: mGlu2 Ago EMAX ±SD
[4] = Brain and plasma kinetics in rat after a single dose; type: in vivo, male Sprague Dawley rat
mGlu1 = mGlu1 (Homo sapiens, UniProt Q13255); test: Selectivity panel, mGlu1 Ca2+ assay; type: cell-based
mGlu3 = mGlu3 (Homo sapiens, UniProt Q14832); test: Selectivity panel, mGlu3 Ca2+ assay; type: cell-based
mGlu4 = mGlu4 (Homo sapiens, UniProt Q14833); test: Selectivity panel, mGlu4 assay; type: cell-based
mGlu5 = mGlu5 (Homo sapiens, UniProt P41594); test: Selectivity panel, mGlu5 Ca2+ assay; type: cell-based
mGlu6 = mGlu6 (Rattus norvegicus, UniProt P35349); test: Selectivity panel, mGlu6 [35S]GTPγS binding; type: biochemical
mGlu7 = mGlu7 (Homo sapiens, UniProt Q14831); test: Selectivity panel, mGlu7 Ca2+ assay; type: cell-based
mGlu8 = mGlu8 (Homo sapiens, UniProt O00222); test: Selectivity panel, mGlu8 Ca2+ assay; type: cell-based
mGlu2 receptor [5] = target: T1, mGlu2 receptor; test: [35S]GTPγS binding assay, PAM mode; type: biochemical
[6] = male, Sprague Dawley, brain, sc, 10 mg/kg
[7] = male, Sprague Dawley, brain/plasma, sc, 10 mg/kg
[8] = male, Sprague Dawley, plasma, sc, 10 mg/kg, pH 3
[9] = male, Sprague Dawley, plasma, sc, 10 mg/kg
[10] = male, Sprague Dawley, brain, po, 10 mg/kg
[11] = male, Sprague Dawley, plasma, po, 10 mg/kg

Chain of mGlu6 (P35349 24-871): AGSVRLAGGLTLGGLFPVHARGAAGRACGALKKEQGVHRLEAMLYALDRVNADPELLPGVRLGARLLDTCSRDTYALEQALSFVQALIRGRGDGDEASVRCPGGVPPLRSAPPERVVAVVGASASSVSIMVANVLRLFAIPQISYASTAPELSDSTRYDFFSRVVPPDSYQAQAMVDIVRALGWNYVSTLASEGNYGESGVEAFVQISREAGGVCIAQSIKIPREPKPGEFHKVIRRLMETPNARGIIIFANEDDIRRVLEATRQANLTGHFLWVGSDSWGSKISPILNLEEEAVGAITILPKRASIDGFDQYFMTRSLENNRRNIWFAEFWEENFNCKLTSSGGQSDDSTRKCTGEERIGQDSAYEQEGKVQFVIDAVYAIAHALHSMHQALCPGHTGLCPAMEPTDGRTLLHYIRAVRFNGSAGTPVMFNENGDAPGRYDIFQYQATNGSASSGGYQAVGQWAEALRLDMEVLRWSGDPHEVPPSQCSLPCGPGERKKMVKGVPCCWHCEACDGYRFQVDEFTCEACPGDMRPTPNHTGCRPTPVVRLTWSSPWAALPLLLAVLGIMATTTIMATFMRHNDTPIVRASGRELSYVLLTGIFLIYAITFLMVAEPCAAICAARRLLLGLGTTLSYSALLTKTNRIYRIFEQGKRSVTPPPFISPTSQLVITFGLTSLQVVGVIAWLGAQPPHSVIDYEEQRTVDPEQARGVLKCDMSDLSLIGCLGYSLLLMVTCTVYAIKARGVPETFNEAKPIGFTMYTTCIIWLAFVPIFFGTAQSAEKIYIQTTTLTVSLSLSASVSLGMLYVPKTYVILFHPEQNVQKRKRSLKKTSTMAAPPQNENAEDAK
Chain of mGlu5 (P41594 21-1212): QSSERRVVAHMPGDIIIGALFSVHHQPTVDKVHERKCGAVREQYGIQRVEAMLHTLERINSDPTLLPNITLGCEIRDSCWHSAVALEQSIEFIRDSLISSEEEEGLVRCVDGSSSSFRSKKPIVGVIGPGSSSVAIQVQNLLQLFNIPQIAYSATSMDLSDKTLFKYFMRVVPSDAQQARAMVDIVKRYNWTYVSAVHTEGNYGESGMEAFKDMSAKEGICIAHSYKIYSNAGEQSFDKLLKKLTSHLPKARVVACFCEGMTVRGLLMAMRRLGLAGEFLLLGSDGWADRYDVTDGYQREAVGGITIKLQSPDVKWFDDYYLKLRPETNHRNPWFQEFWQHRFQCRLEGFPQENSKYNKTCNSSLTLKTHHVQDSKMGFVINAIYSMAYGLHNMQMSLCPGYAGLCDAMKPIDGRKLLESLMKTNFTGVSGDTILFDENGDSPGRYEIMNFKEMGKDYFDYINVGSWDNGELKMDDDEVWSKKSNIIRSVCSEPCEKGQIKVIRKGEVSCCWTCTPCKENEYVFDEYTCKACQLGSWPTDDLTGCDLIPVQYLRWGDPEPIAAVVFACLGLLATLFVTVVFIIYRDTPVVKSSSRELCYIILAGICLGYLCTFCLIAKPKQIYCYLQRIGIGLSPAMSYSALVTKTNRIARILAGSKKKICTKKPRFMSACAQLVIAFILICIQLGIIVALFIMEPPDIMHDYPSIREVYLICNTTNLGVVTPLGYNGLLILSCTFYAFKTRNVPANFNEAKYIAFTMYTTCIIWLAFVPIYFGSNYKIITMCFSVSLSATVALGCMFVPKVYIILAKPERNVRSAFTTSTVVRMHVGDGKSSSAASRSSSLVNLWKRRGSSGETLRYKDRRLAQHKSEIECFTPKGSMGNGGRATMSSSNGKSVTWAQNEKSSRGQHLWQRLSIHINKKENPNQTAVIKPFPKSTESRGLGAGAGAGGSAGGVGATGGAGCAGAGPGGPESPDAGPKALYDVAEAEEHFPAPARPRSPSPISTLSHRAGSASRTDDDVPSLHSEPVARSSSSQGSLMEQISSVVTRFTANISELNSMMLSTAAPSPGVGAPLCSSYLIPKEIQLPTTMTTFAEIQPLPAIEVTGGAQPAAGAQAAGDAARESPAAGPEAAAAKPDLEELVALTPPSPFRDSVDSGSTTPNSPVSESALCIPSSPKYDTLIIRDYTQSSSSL
Chain of mGlu4 (Q14833 33-912): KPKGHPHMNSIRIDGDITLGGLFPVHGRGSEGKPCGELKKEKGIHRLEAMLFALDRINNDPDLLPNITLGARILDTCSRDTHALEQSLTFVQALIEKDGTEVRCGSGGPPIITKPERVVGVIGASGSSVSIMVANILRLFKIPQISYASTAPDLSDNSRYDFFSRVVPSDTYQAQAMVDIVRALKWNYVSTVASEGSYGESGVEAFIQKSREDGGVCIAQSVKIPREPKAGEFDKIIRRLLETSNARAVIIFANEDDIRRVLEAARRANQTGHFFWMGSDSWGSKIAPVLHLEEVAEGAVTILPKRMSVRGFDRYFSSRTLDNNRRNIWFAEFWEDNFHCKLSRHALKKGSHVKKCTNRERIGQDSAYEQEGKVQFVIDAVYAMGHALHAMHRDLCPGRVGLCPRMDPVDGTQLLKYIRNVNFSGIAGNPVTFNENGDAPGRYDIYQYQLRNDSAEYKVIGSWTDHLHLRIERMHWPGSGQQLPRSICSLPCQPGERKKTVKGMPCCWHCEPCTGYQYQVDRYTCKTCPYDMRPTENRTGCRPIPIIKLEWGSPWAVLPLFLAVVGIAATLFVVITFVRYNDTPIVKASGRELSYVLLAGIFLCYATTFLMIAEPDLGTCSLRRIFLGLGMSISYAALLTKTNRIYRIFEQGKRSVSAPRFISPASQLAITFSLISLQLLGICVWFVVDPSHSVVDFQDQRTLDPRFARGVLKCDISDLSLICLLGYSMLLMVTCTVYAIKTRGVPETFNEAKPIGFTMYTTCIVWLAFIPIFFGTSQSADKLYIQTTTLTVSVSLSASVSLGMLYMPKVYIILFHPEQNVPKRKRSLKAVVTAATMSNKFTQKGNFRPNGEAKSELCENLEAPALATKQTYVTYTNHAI
Chain of mGlu3 (Q14832 23-879): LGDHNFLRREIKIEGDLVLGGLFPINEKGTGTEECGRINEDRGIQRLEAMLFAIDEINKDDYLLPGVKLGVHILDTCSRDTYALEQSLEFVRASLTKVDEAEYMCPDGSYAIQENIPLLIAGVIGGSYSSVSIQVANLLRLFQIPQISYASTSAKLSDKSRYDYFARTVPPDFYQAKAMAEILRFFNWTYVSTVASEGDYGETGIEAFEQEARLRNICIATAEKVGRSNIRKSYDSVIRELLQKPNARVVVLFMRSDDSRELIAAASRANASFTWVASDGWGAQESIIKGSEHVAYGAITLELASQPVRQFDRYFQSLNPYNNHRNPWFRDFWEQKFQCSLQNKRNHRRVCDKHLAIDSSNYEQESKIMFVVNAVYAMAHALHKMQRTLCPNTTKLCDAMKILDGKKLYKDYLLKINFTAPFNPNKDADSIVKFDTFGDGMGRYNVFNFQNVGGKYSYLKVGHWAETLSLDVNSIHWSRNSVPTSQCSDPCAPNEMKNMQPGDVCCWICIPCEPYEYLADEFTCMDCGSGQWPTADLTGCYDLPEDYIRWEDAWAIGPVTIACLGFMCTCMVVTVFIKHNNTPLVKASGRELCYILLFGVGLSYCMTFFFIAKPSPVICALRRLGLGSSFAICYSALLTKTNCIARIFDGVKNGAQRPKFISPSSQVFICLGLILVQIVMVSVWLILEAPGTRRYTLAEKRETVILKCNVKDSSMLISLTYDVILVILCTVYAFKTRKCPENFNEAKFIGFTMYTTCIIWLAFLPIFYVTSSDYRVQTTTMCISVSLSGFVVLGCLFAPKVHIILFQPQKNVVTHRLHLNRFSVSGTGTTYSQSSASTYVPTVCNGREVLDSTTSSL
Chain of mGlu8 (O00222 34-908): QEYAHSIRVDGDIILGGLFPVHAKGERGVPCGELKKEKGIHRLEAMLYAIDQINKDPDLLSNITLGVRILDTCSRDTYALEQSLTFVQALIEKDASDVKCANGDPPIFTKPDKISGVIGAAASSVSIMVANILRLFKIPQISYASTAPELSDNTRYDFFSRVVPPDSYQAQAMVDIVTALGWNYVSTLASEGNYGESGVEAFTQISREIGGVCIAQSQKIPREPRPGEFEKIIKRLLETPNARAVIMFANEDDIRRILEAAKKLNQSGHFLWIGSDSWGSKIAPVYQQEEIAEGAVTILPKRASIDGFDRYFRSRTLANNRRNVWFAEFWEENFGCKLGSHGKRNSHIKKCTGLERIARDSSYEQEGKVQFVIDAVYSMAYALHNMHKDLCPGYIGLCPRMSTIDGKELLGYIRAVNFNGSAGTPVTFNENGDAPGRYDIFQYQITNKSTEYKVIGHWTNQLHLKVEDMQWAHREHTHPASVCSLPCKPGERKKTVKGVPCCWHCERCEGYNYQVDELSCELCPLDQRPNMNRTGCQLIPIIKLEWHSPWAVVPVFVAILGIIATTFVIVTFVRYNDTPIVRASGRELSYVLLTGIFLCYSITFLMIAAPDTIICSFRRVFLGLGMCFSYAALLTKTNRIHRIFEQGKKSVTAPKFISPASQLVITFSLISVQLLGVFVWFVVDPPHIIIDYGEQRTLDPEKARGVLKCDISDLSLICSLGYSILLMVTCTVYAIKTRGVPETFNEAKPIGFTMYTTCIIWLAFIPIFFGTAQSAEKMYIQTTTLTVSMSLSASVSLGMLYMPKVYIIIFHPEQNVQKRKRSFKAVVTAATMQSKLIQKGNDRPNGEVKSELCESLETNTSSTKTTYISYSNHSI

Structure (SMILES): CCCCn1ccn2c(CN3CCC(c4ccccc4)CC3)c(C)nc2c1=O [Compound 3a]
HLM (%), percentage of compound metabolized [1]: 20%
RLM (%), percentage of compound metabolized [2]: 58%

Structure (SMILES): CCCCn1ccn2c(-c3ccc(Oc4ccc(C)nc4C)c(F)c3)c(C)nc2c1=O [Compound 3c]
EC50 (mGlu2 receptor [3]): 1.82 µM
Emax (mGlu2 receptor [3]): 54%
HLM (%), percentage of compound metabolized [1]: 24%
RLM (%), percentage of compound metabolized [2]: 56%
concentration at 1 h [4, 6]: 446 ng/g
Kp at 1 h [4, 7]: 0.2
concentration at 1 h [4, 8]: 1820 ng/mL

Structure (SMILES): CCCCn1ccn2c(-c3ccc(NCc4ccc(OC)nc4)cc3)c(C)nc2c1=O [Compound 3d]
EC50 (mGlu2 receptor [3]): 0.571 µM
Emax (mGlu2 receptor [3]): 47 ± 1%
HLM (%), percentage of compound metabolized [1]: 59%
RLM (%), percentage of compound metabolized [2]: 36%
Kp at […] [4, 7]: 0.3

Structure (SMILES): CCCCn1ccn2c(-c3ccc(OCC4CC4)c(Cl)c3)c(C)nc2c1=O [Compound 3e]
HLM (%), percentage of compound metabolized [1]: 20%
RLM (%), percentage of compound metabolized [2]: 49%
EC50 (mGlu1): > 30 µM
IC50 (mGlu1): > 30 µM
Emax (mGlu1; read-out: mGlu1 agonism Emax): 4%
Emax (mGlu1; read-out: mGlu1 antagonism Emax): 18%
IC50 (mGlu3): > 30 µM
EC50 (mGlu3; mGlu3 PAM EC50, Ca2+ read-out): 14.3 µM
EC50 (mGlu3; mGlu3 agonism EC50, Ca2+ read-out): > 30 µM
Emax (mGlu3; read-out: mGlu3 PAM Emax): 63%
Emax (mGlu3; read-out: mGlu3 agonism Emax): 2%
Emax (mGlu3; read-out: mGlu3 antagonism Emax): 15%
EC50 (mGlu4): > 25 µM
IC50 (mGlu4): 17 µM
Emax (mGlu4; read-out: mGlu4 agonism Emax): 5%
Emax (mGlu4; read-out: mGlu4 antagonism Emax): 100%
EC50 (mGlu5): > 30 µM
IC50 (mGlu5): > 30 µM
Emax (mGlu5; read-out: mGlu5 PAM Emax): 0%
EC50 (mGlu5; read-out: mGlu5 agonism EC50, Ca2+ read-out): > 30 µM
Emax (mGlu5; read-out: mGlu5 agonism Emax): 0%
Emax (mGlu5; read-out: mGlu5 antagonism Emax): 7%
EC50 (mGlu6): > 30 µM
IC50 (mGlu6): 26.5 µM
Emax (mGlu6; read-out: mGlu6 agonism Emax): 1%
Emax (mGlu6; read-out: mGlu6 antagonism Emax): 53%
EC50 (mGlu7): > 25 µM
IC50 (mGlu7): 8.32 µM
Emax (mGlu7; read-out: mGlu7 PAM Emax): 5%
EC50 (mGlu7; read-out: mGlu7 agonism EC50, Ca2+ read-out): > 25 µM
Emax (mGlu7; read-out: mGlu7 agonism Emax): 1%
Emax (mGlu7; read-out: mGlu7 antagonism Emax): 27%
EC50 (mGlu8): > 25 µM
IC50 (mGlu8): > 25 µM
EC50 (mGlu8; read-out: mGlu8 agonism EC50, Ca2+ read-out): > 25 µM
Emax (mGlu8; read-out: mGlu8 agonism Emax): -4%
Emax (mGlu8; read-out: mGlu8 antagonism Emax): 16%
concentration at 1 h [4, 6]: 2540 ng/g
concentration at 2 h [4, 6]: 2860 ng/g
concentration at 4 h [4, 6]: 835 ng/g
concentration at 2 h [4, 9]: 1390 ng/mL
concentration at 4 h [4, 9]: 526 ng/mL
concentration at 1 h [4, 8]: 1420 ng/mL

Structure (SMILES): CCCCn1ccn2c(-c3ccc(N4CCNCC4)c(Cl)c3)c(C)nc2c1=O [Compound 3g]
EC50 (mGlu2 receptor [3]): 0.989 µM
Emax (mGlu2 receptor [3]): 36 ± 4%
HLM (%), percentage of compound metabolized [1]: 0%
RLM (%), percentage of compound metabolized [2]: 17%

Structure (SMILES): CCCCn1ccn2c(-c3ccc4c(ccn4-c4cccnc4)c3)c(C)nc2c1=O [Compound 3i]
EC50 (mGlu2 receptor [3]): 0.229 µM
Emax (mGlu2 receptor [3]): 44%
HLM (%), percentage of compound metabolized [1]: 35%
RLM (%), percentage of compound metabolized [2]: 47%

Structure (SMILES): CCCCn1ccn2c(-c3ccc(Oc4ccccc4)cc3)c(C)nc2c1=O [Compound 3j]
EC50 (mGlu2 receptor [3]): 0.151 µM
Emax (mGlu2 receptor [3]): 48 ± 2%
HLM (%), percentage of compound metabolized [1]: 2%
RLM (%), percentage of compound metabolized [2]: 86%
brain level 4 h ([4]; 10 mg/kg p.o., 4 h): BQL ^d
concentration at 1 h [4, 10]: 104 ng/g
concentration at 2 h [4, 10]: 92 ng/g
Kp at 2 h ([4]; male, Sprague Dawley, brain/plasma, po, 10 mg/kg): 0.5
concentration at 1 h [4, 11]: 263 ng/mL
concentration at 2 h [4, 11]: 192 ng/mL
concentration at 4 h [4, 11]: 14 ng/mL

Other lines, results leading:

HLM (%), percentage of compound metabolized [1]: 2%
RLM (%), percentage of compound metabolized [2]: 45%
Structure (SMILES): CCCCn1ccn2c(-c3ccc(OCC4CC4)c(Cl)c3)nnc2c1=O [Compound 4a, 7-Butyl-3-[3-chloro-4-(cyclopropylmethoxy)phenyl]-[1,2,4]triazolo[4,3-a]pyrazin-8-one]

HLM (%), percentage of compound metabolized [1]: 1%
RLM (%), percentage of compound metabolized [2]: 25%
Structure (SMILES): CCCCn1cnn2c(-c3ccc(OCC4CC4)c(Cl)c3)cnc2c1=O [Compound 4b, 3-Butyl-7-[3-chloro-4-(cyclopropylmethoxy)phenyl]imidazo[2,1-f][1,2,4]triazin-4-one]

HLM (%), percentage of compound metabolized [1]: 4%
RLM (%), percentage of compound metabolized [2]: 21%
Structure (SMILES): CCCCn1ncn2c(-c3ccc(OCC4CC4)c(Cl)c3)cnc2c1=O [Compound 4c, 7-Butyl-3-[3-chloro-4-(cyclopropylmethoxy)phenyl]imidazo[1,2-d][1,2,4]triazin-8-one]

HLM (%), percentage of compound metabolized [1]: 0%
RLM (%), percentage of compound metabolized [2]: 60%
Structure (SMILES): CCCCn1cnc2c(-c3ccc(OCC4CC4)c(Cl)c3)c(C)nn2c1=O [Compound 4d, 3-Butyl-8-[3-chloro-4-(cyclopropylmethoxy)phenyl]-7-methyl-pyrazolo[1,5-a][1,3,5]triazin-4-one]

fold decrease in mGlu2 PAM potency vs 3e (mGlu2 receptor [5]): ~10 fold
EC50 (mGlu2 receptor [3]): > 50.1 µM
Emax (mGlu2 receptor [3]): 12%
HLM (%), percentage of compound metabolized [1]: 31%
RLM (%), percentage of compound metabolized [2]: 74%
Structure (SMILES): CCCCn1ccn2c(-c3ccc(OCC4CC4)c(Cl)c3)nc(C)c2c1=O [Compound 4e, 7-Butyl-3-[3-chloro-4-(cyclopropylmethoxy)phenyl]-1-methyl-imidazo[1,5-a]pyrazin-8-one]
